Results: PubChem BioAssay AID652274 (Broad Institute, 2013)
Inconclusive results are not listed.

Test system: washed human platelets, SFLLRN aggregation after wash, transmittance
Test: irreversible platelet aggregation inhibition after washout, late-stage follow-up, mechanism study for PDI inhibitor project, cell-based, aggregometer, SFLLRN stimulus, single point, dry powder (AID 652274)
Conditions: at 30 µM

Which platelet aggregation inhibition after wash (%), active compounds read high does the source give for C/C1=C\C[C@H](OC(=O)c2ccc(O)cc2)/C(C)=C/[C@@H](O)C(C)(C)CCC1 here?
The platelet aggregation inhibition after wash (%), active compounds read high was 100%.
